From patent US20180179524A1, “COMPOSITIONS AND METHODS FOR INHIBITING CELL PROLIFERATION” (President and Fellows of Harvard College, priority 2015, published 2018)

system: luciferase-based reporter constructs in S2R+ cells; assay: Luciferase-based mutation reporter assay (sgRNA mutation efficiency); format: cell-based, Drosophila; details: sgRNAs with no mismatches targeting luciferase-based reporter in S2R+ cells; mutation rate = 1/Firefly luciferase normalized to Renilla
Experimental: The luciferase reporter vector was constructed by PCR amplifying the metallothionein promoter from pMK33 and luciferase gene from pGL3 (Table 1) and combining these with annealed oligos containing a gRNA target site (Table 1 and Table 2) and a custom made cloning vector using Golden Gate assembly.
Luciferase assays were performed by transfecting S2R+ cells with the relevant pl018 plasmid, luciferase reporter and pRL-TK (Promega) (to allow normalization of transfection efficiencies between samples) in 96 well plates using Effectene Transfection Reagent (Qiagen) according to the manufacturer's recommendations. Twenty-four hours after transfection, CuSO4 was added to the cell media at a final concentration of 140 μM and cells were incubated for a further 16 hours.
Firefly and Renilla luciferase readings were taken using the Dual-Glo Luciferase Assay System (Promega) according to manufacturer's instructions and a SpectraMax Paradigm Multi-Mode Microplate Detection Platform (Molecular Devices).
Because the rate of mutations varies widely between different sgRNAs (25-27), whether efficiency could be predicted based on the sgRNA sequence was tested. 75 additional sgRNAs were generated, each targeting luciferase-based reporter constructs with no mismatches and tested mutation efficiency for each. Using this panel of sgRNAs and associated efficiencies, the presence or absence of a correlation between GC content and mutation rate was examined. […] Next, whether a more general sequence-based approach was tested for its ability to improve efficiency prediction. The nucleotide content of all 75 sgRNAs was examined, considering each position separately and generated a probability matrix linking nucleotide content with mutation rate (FIG. 1, panel B). This was then used to generate predicted efficiency scores based on sgRNA sequence. […] Note that sgRNAs targeting close to the 3′ end of genes or with apparent viability effects were not included in this analysis. Finally, predicted scores were generated for all sgRNA target sites in the Drosophila genome and annotated.

Substance | Mean efficiency
AAACAGAAGGTCTTCCCCAA: sgRNA targeting a luciferase-based reporter construct, no mismatches (chemistry not given here) | 0.3046
AAAGAGCTGCGGGCCGGGCG: sgRNA targeting a luciferase-based reporter construct, no mismatches (chemistry not given here) | 0.06954
AACGACATCACGGTCCATGC: sgRNA targeting a luciferase-based reporter construct, no mismatches (chemistry not given here) | 0.2424
AACTCAAAGACCCGCTTTCG: sgRNA targeting a luciferase-based reporter construct, no mismatches (chemistry not given here) | 0.1408
AAGATAAGTTCTCTCCTATT: sgRNA targeting a luciferase-based reporter construct, no mismatches (chemistry not given here) | 0.04594
AAGTAGGCTCTCCTGAATGG: sgRNA targeting a luciferase-based reporter construct, no mismatches (chemistry not given here) | 0.1224
ACCAGCATATGCCGGCCTGC: sgRNA targeting a luciferase-based reporter construct, no mismatches (chemistry not given here) | 0.767
ACCCTGTCCACTCATATATG: sgRNA targeting a luciferase-based reporter construct, no mismatches (chemistry not given here) | 0.4172
ACCGAAAGTCGCGCCGGACG: sgRNA targeting a luciferase-based reporter construct, no mismatches (chemistry not given here) | 0.2496
ACCGCCAAACGGACCGCTTA: sgRNA targeting a luciferase-based reporter construct, no mismatches (chemistry not given here) | 0.3105
ACGCGCACGGGTCTCACGCC: sgRNA targeting a luciferase-based reporter construct, no mismatches (chemistry not given here) | 0.3288
AGACTGGTTTCCACCCGCTC: sgRNA targeting a luciferase-based reporter construct, no mismatches (chemistry not given here) | 1.298
AGGGAGTCCGCATAGGCGGC: sgRNA targeting a luciferase-based reporter construct, no mismatches (chemistry not given here) | 0.1819
AGTCCTCACCGTGGGGCACC: sgRNA targeting a luciferase-based reporter construct, no mismatches (chemistry not given here) | 0.09069
ATAGTTCCCTCCATGCCCTT: sgRNA targeting a luciferase-based reporter construct, no mismatches (chemistry not given here) | 0.07786
ATATCGGAGTCGGCCCAACC: sgRNA targeting a luciferase-based reporter construct, no mismatches (chemistry not given here) | 0.4113
ATCTGACCTCCCGGCTAATT: sgRNA targeting a luciferase-based reporter construct, no mismatches (chemistry not given here) | 0.05737
ATCTGGTCAGGACGCAAAGC: sgRNA targeting a luciferase-based reporter construct, no mismatches (chemistry not given here) | 0.1406
ATCTTCCCGTCGACATAGCC: sgRNA targeting a luciferase-based reporter construct, no mismatches (chemistry not given here) | 0.1609
CAACCAACAGGTCCGGCCCC: sgRNA targeting a luciferase-based reporter construct, no mismatches (chemistry not given here) | 0.3833
CAAGCAAGTCCGGTCGGTTG: sgRNA targeting a luciferase-based reporter construct, no mismatches (chemistry not given here) | 0.3531
CAGCCTCTCCCTGCGGATGC: sgRNA targeting a luciferase-based reporter construct, no mismatches (chemistry not given here) | 0.2509

Substance | Mean efficiency
CAGGCATTGTGACGACGCGC: sgRNA targeting a luciferase-based reporter construct, no mismatches (chemistry not given here) | 0.1744
CCACCGCGATATATGGGCGA: sgRNA targeting a luciferase-based reporter construct, no mismatches (chemistry not given here) | 0.5711
CCAGTAACGTCAAAGCTAGG: sgRNA targeting a luciferase-based reporter construct, no mismatches (chemistry not given here) | 0.1068
CCGCCGTGTGCTGCGAATAC: sgRNA targeting a luciferase-based reporter construct, no mismatches (chemistry not given here) | 0.1661
CCGCGCCGAGGACTACCGCC: sgRNA targeting a luciferase-based reporter construct, no mismatches (chemistry not given here) | 0.4568
CCGTCGAAGAACCGCGCAAT: sgRNA targeting a luciferase-based reporter construct, no mismatches (chemistry not given here) | 1.029
CCTGGATGATACGCTGGCGC: sgRNA targeting a luciferase-based reporter construct, no mismatches (chemistry not given here) | 0.1807
CCTTCGCGAGCACCCGGAAA: sgRNA targeting a luciferase-based reporter construct, no mismatches (chemistry not given here) | 0.3812
CGAATTACTACGTAGAGCGG: sgRNA targeting a luciferase-based reporter construct, no mismatches (chemistry not given here) | 0.1117
CGACGTTCCTGGCTCAATTG: sgRNA targeting a luciferase-based reporter construct, no mismatches (chemistry not given here) | 0.9067
CGCCGGCACCGCGTCCCTAT: sgRNA targeting a luciferase-based reporter construct, no mismatches (chemistry not given here) | 0.2542
CGTCGTTCTCGCCACCGCGC: sgRNA targeting a luciferase-based reporter construct, no mismatches (chemistry not given here) | 0.1461
CTCACAGACGGCGCCCGGCG: sgRNA targeting a luciferase-based reporter construct, no mismatches (chemistry not given here) | 0.4741
CTGCCGTTCTTCAGAAATAT: sgRNA targeting a luciferase-based reporter construct, no mismatches (chemistry not given here) | 0.3101
CTGGGCCGGCGTGTCCGTTC: sgRNA targeting a luciferase-based reporter construct, no mismatches (chemistry not given here) | 0.4328
CTTCCGACCCTTCGTTAGCC: sgRNA targeting a luciferase-based reporter construct, no mismatches (chemistry not given here) | 0.1815
GAACTCCGACTAGATTATAT: sgRNA targeting a luciferase-based reporter construct, no mismatches (chemistry not given here) | 0.4012
GACAAAGGATACTCAAATCC: sgRNA targeting a luciferase-based reporter construct, no mismatches (chemistry not given here) | 0.05169
GACCGGATTCGCTACAACCC: sgRNA targeting a luciferase-based reporter construct, no mismatches (chemistry not given here) | 0.6963
GCACCCTGCACGAATTATTT: sgRNA targeting a luciferase-based reporter construct, no mismatches (chemistry not given here) | 0.2041
GCATGCCCACCTTATCGGCG: sgRNA targeting a luciferase-based reporter construct, no mismatches (chemistry not given here) | 0.1169
